Patent publication US9023865B2, “Compounds that are ERK inhibitors” (Merck Sharp & Dohme Corp., priority 2011, dated 2015)

What follows are compounds tested against Active Human ERK2 (hERK2) (Homo sapiens (Human), UniProt P28482) (assay: Active Human ERK2 (hERK2) Activity Assay (IMAP-FP)). Settings: phosphorylated active hERK2, 30 μM ATP; average; read-out: ERK 2 Human average IC50.
Format: biochemical
Method in brief: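 Reaction contains 0.5 nM activated hERK2, 900 nM unlabeled plus 80 nM labeled peptide and 30 μM ATP, run 60 min. Quenched with IMAP binding beads in buffer with 24 mM NaCl; fluorescence polarization read after 60 min binding equilibration.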

Active Human ERK2 (hERK2), sequence (P28482 whole entry): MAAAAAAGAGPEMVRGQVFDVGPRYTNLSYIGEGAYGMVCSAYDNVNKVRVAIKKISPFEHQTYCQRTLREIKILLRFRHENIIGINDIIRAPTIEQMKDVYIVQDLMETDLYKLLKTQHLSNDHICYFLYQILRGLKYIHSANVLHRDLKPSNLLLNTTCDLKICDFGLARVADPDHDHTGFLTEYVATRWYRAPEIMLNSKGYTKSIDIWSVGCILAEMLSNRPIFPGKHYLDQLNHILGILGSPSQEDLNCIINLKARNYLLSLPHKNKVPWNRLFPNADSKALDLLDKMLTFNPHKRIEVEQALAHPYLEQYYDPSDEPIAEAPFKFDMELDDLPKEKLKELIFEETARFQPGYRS

Structure (SMILES)	IC50
CN1C[C@H](NC(=O)Nc2cc3[nH]nc(-c4ccc(F)cc4)c3cn2)[C@@H](c2ccccc2)C1 [Example 213]	42.1 nM
CN1C[C@@H](NC(=O)Nc2cc3[nH]nc(-c4ccc(F)cc4)c3cn2)[C@H](c2ccccc2)C1 [Example 214]	0.394 nM
Cc1cc(-c2n[nH]c3cc(NC(=O)N[C@@H]4CN(C)C[C@H]4c4ccccc4C)ncc23)ccn1 [Example 215, 1-((3S,4R)-1-methyl-4-(o-tolyl)pyrrolidin-3-yl)-3-(3-(2-methylpyridin-4-yl)-1H-pyrazolo[4,3-c]pyridin-6-yl)urea]	0.537 nM
Cc1cc(-c2n[nH]c3cc(NC(=O)N[C@H]4CN(C)C[C@@H]4c4ccccc4C)ncc23)ccn1 [Example 216, 1-((3R,4S)-1-methyl-4-(o-tolyl)pyrrolidin-3-yl)-3-(3-(2-methylpyridin-4-yl)-1H-pyrazolo[4,3-e]pyridin-6-yl)urea]	66.3 nM
CC[C@H](NC(=O)Nc1cc2[nH]nc(-c3ccnc(C)c3)c2cn1)c1ccccn1 [Example 217]	41.6 nM
CC[C@@H](NC(=O)Nc1cc2[nH]nc(-c3ccnc(C)c3)c2cn1)c1ccccn1 [Example 218]	0.487 nM
O=C(NCCC1CCOC1)Nc1cc2[nH]nc(-c3ccc(F)cc3)c2cn1 (stereo not drawn) [Example 219]	1.68 nM
O=C(NCC1CCOC1)Nc1cc2[nH]nc(-c3ccc(F)cc3)c2cn1 (stereo not drawn) [Example 220]	2.46 nM
O=C(NCc1ncco1)Nc1cc2[nH]nc(-c3ccc(F)cc3)c2cn1 [Example 221]	4.49 nM
O=C(NCc1ccno1)Nc1cc2[nH]nc(-c3ccc(F)cc3)c2cn1 [Example 222]	0.995 nM
CN(C)CCNC(=O)Nc1cc2[nH]nc(-c3ccc(F)cc3)c2cn1 [Example 224]	24.3 nM
Cc1cc(-c2n[nH]c3c(F)c(NC(=O)NC(C)c4ccccn4)ncc23)ccn1 (stereo not drawn) [Example 225]	2.45 nM
CN1CCOC(CNC(=O)Nc2cc3[nH]nc(-c4ccc(F)cc4)c3cn2)C1 (stereo not drawn) [Example 226]	1.58 nM
CC(CNC(=O)Nc1cc2[nH]nc(-c3ccc(F)cc3)c2cn1)N(C)C (stereo not drawn) [Example 227]	25.8 nM
CC(CN(C)C)NC(=O)Nc1cc2[nH]nc(-c3ccc(F)cc3)c2cn1 (stereo not drawn) [Example 228]	70.3 nM
Cc1cc(-c2n[nH]c3cc(NC(=O)N[C@H](C)c4cc(Cl)ccn4)ncc23)ccn1 [Example 229]	1.06 nM
COc1ccnc([C@H](C)NC(=O)Nc2cc3[nH]nc(-c4ccnc(C)c4)c3cn2)c1 [Example 230]	650 nM
COc1ccnc([C@@H](C)NC(=O)Nc2cc3[nH]nc(-c4ccnc(C)c4)c3cn2)c1 [Example 231]	1.53 nM
Cc1cc(-c2n[nH]c3cc(NC(=O)N[C@H](C)c4ncccc4F)ncc23)ccn1 [Example 232]	0.699 nM
Cc1cc(-c2n[nH]c3cc(NC(=O)N[C@@H](C)c4ccc(C#N)cc4)ncc23)ccn1 [Example 233]	42.5 nM
Cc1cc(-c2n[nH]c3cc(NC(=O)N[C@H](C)c4ccc(C#N)cc4)ncc23)ccn1 [Example 234]	0.861 nM
Cc1cc(-c2n[nH]c3cc(NC(=O)N[C@@H](C)c4ccncc4)ncc23)ccn1 [Example 235]	21.9 nM
Cc1cc(-c2n[nH]c3cc(NC(=O)N[C@H](C)c4ccncc4)ncc23)ccn1 [Example 236]	1.51 nM
Cc1cc(-c2n[nH]c3cc(NC(=O)NC(c4ccccc4)C4CCCO4)ncc23)ccn1 (stereo not drawn) [Example 237]	0.566 nM
Cc1cc(-c2n[nH]c3cc(NC(=O)NC(c4ccc(F)cc4)C4CCCO4)ncc23)ccn1 (stereo not drawn) [Example 238]	0.935 nM
Cc1cc(-c2n[nH]c3cc(NC(=O)NC(C)CC4CCCO4)ncc23)ccn1 (stereo not drawn) [Example 239]	5.88 nM

Structure (SMILES)	IC50
COCC(NC(=O)Nc1cc2[nH]nc(-c3ccnc(C)c3)c2cn1)c1ccc(C(F)(F)F)cn1 (stereo not drawn) [Example 240]	24.2 nM
CCCNC(=O)Nc1cc2[nH]nc(-c3ccnc(C)c3)c2cn1 [Example 241]	2.73 nM
C[C@@H](NC(=O)Nc1cc2[nH]nc(-c3ccc(-n4ccnn4)cc3)c2cn1)c1ccc(F)cc1 [Example 242, 1-[(1R)-1-(4-fluorophenyl)ethyl]-3-{3-[4-(1H-1,2,3-triazol-1-yl)phenyl]-1H-pyrazolo[4,3-c]pyridin-6-yl}urea]	5.54 nM
Cc1nocc1-c1n[nH]c2cc(NC(=O)N[C@H](C)c3ccc(F)cc3)ncc12 [Example 243]	86.8 nM
C[C@@H](NC(=O)Nc1cc2[nH]nc(-c3ccc(N4CCCCC4)nc3)c2cn1)c1ccc(F)cc1 [Example 244]	9.85 nM
C[C@@H](NC(=O)Nc1cc2[nH]nc(-c3ccc4nncn4c3)c2cn1)c1ccc(F)cc1 [Example 246]	0.581 nM
C[C@@H](NC(=O)Nc1cc2[nH]nc(-c3ccc(-n4nccn4)cc3)c2cn1)c1ccc(F)cc1 [Example 247]	45 nM
Cc1ccc(-c2n[nH]c3cc(NC(=O)N[C@H](C)c4ccc(F)cc4)ncc23)s1 [Example 248]	11.7 nM
CC(C)Oc1ccc(-c2n[nH]c3cc(NC(=O)N[C@H](C)c4ccc(F)cc4)ncc23)cn1 [Example 250]	2.36 nM
COc1cncc(-c2n[nH]c3cc(NC(=O)N[C@H](C)c4ccc(F)cc4)ncc23)n1 [Example 251]	5.26 nM
COc1ncc(-c2n[nH]c3cc(NC(=O)N[C@H](C)c4ccc(F)cc4)ncc23)cn1 [Example 252]	0.746 nM
COc1cncc(-c2n[nH]c3cc(NC(=O)N[C@H](C)c4ccc(F)cc4)ncc23)c1 [Example 253]	3.16 nM
C[C@@H](NC(=O)Nc1cc2[nH]nc(-c3ccc(C#N)nc3)c2cn1)c1ccc(F)cc1 [Example 254]	4.59 nM
C[C@@H](NC(=O)Nc1cc2[nH]nc(-c3ccc(N4CCOCC4)nc3)c2cn1)c1ccc(F)cc1 [Example 255]	0.783 nM
COc1cc(-c2n[nH]c3cc(NC(=O)N[C@H](C)c4ccc(F)cc4)ncc23)cc(C(F)(F)F)n1 [Example 257]	379 nM
C[C@@H](NC(=O)Nc1cc2[nH]nc(-c3ccnc(C#N)c3)c2cn1)c1ccc(F)cc1 [Example 258]	1.76 nM
C[C@@H](NC(=O)Nc1cc2[nH]nc(-c3cnn(C)c3)c2cn1)c1ccc(F)cc1 [Example 259]	0.469 nM
C[C@@H](NC(=O)Nc1cc2[nH]nc(-c3ccc4nnn(C)c4c3)c2cn1)c1ccc(F)cc1 [Example 260]	0.309 nM
Cc1cc(-c2n[nH]c3cc(NC(=O)N[C@@H]4CCCc5ncccc54)ncc23)ccn1 [Example 261]	1.49 nM
Cc1cc(-c2n[nH]c3cc(NC(=O)N[C@@H]4CCCc5cccnc54)ncc23)ccn1 [Example 262, 1-[3-(2-methylpyridin-4-yl)-1H-pyrazolo[4,3-c]pyridin-6-yl]-3-[(8R)-5,6,7,8-tetrahydroquinolin-8-yl]urea]	1.25 nM
Cc1cc(-c2n[nH]c3cc(NC(=O)N[C@@H]4CCCc5ccncc54)ncc23)ccn1 [Example 263]	1.8 nM
Cc1cc(-c2n[nH]c3cc(NC(=O)N[C@@H]4CCSc5ccccc54)ncc23)ccn1 [Example 264]	2.08 nM
Cc1cc(-c2n[nH]c3cc(NC(=O)N[C@@H]4CCCCc5ccccc54)ncc23)ccn1 [Example 265]	1.64 nM
Cc1cc(-c2n[nH]c3cc(NC(=O)N[C@@H]4CCOc5cc(C#N)ccc54)ncc23)ccn1 [Example 266]	70.6 nM
Cc1cc(-c2n[nH]c3cc(NC(=O)NCC4(c5ccc(OC(F)(F)F)cc5)CC4)ncc23)ccn1 [Example 268]	91.6 nM
